Test results as given in patent publication US12157730B2, “Heteroaryl derivative, method for producing same, and pharmaceutical composition comprising same as effective component” (VORONOI INC., priority 2019, dated 2024).

Biological target: T1, Ba/F3 cell EGFR Exon20 ins NPH (Homo sapiens, UniProt P00533, INS773NPH)
T1 construct: expressed in transfected cells; host or cells: Ba/F3
Assay: Ba/F3 cell proliferation suppression, EGFR Exon20 ins NPH
Format: cell-based
Conditions: GI50 class; Ba/F3 cell line with NPH inserted at Exon20 of EGFR; 72 hours
Method in brief: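 Growth suppression determined as GI50 following 72 h exposure across 12 concentrations up to 50 um, with viability by luminescent ATP assay (CellTiter-Glo).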

Row | Structure (SMILES) | Ba/F3 (NPH) Activity
1 | C#Cc1cccc([C@H]2CCON2c2cc(Nc3cc(NC(=O)C=C)c(N4CCC(N5CCN(CC=C)CC5)CC4)cc3OC)ncn2)c1 [Example 216, N-(2-(4-(4-allylpiperazine-1-yl)piperidine-1-yl)-5-((6-((R)-3-(3-ethynylphenyl)isoxazolidine-2-yl)pyrimidine-4-yl)amino)-4-methoxyphenyl) acrylamide] | A (GI50 < 50 nM)
2 | C=CC(=O)Nc1cc(Nc2cc(N3OCC[C@@H]3c3ccc4ccccc4c3)ncn2)c(OC)cc1N1CCC(N2CCN(CC)CC2)CC1 [compound 515, N-(2-(4-(4-ethylpiperazine-1-yl)piperidine-1-yl)-4-methoxy-5-((6-((R)-3-(naphthalene-2-yl)isoxazolidine-2-yl)pyrimidine-4-yl)amino)phenyl)acrylamide] | B (50 nM ≤ GI50 < 500 nM)
3 | C=CC(=O)Nc1cc(Nc2cc(N3OCC[C@@H]3c3ccc4ccccc4c3)ncn2)c(OC)cc1N1CCC(N2CCN(C3CCC3)CC2)CC1 [Example 190, N-(2-(4-(4-cyclobutylpiperazine-1-yl)piperidine-1-yl)-4-methoxy-5-((6-((R)-3-(naphthalene-2-yl)isoxazolidine-2-yl)pyrimidine-4-yl)amino)phenyl)acrylamide] | B (50 nM ≤ GI50 < 500 nM)
4 | C=CC(=O)Nc1cc(Nc2cc(N3OCC[C@@H]3c3cc(F)cc(F)c3)ncn2)c(OC)cc1N1CCC(N2CCN(C3CCC3)CC2)CC1 [Example 68, N-(2-(4-(4-cyclobutylpiperazine-1-yl)piperidine-1-yl)-5-((6-((R)-3-(3,5-difluorophenyl)isoxazolidine-2-yl)pyrimidine-4-yl)amino)-4-methoxyphenyl) acrylamide] | A (GI50 < 50 nM)
5 | C=CC(=O)Nc1cc(Nc2cc(N3OCC[C@@H]3Cc3cccc(F)c3C)ncn2)c(OC)cc1N1CCC(N2C[C@H]3C[C@@H]2CO3)CC1 [compound 1039, N-(2-(4-((1R,4R)-2-oxa-5-azabicyclo [2.2.1]heptane-5-yl)piperidine-1-yl)-5-((6-((S)-3-(3-fluoro-2-methylbenzyl)isoxazolidine-2-yl)pyrimidine-4-yl)amino)-4-methoxyphenyl) acrylamide] | A (GI50 < 50 nM)
6 | C#Cc1cccc([C@H]2CCON2c2cc(Nc3cc(NC(=O)C=C)c(N4CCC(N5CCOCC5)CC4)cc3OC)ncn2)c1 [compound 650, N-(5-((6-((R)-3-(3-ethynylphenyl)isoxazolidine-2-yl)pyrimidine-4-yl)amino)-4-methoxy-2-(4-morpholinopiperidine-1-yl)phenyl)acrylamide] | A (GI50 < 50 nM)
7 | C=CC(=O)Nc1cc(Nc2cc(N3OCC[C@@H]3c3cccc4ccccc34)ncn2)c(OC)cc1N1CCC(N2CCN(C3CCC3)CC2)CC1 [Example 184, N-(2-(4-(4-cyclobutylpiperazine-1-yl)piperidine-1-yl)-4-methoxy-5-((6-((R)-3-(naphthalene-1-yl)isoxazolidine-2-yl)pyrimidine-4-yl)amino)phenyl)acrylamide] | B (50 nM ≤ GI50 < 500 nM)
8 | C=CC(=O)Nc1cc(Nc2cc(N3OCC[C@@H]3c3cc(F)ccc3F)ncn2)c(OC)cc1N1CCC(N2CCN(C)[C@H](C)C2)CC1 [compound 851, N-(5-((6-((R)-3-(2,5-difluorophenyl)isoxazolidine-2-yl)pyrimidine-4-yl)amino)-2-(4-((R)-3,4-dimethylpiperazine-1-yl)piperidine-1-yl)-4-methoxyphenyl) acrylamide] | A (GI50 < 50 nM)
9 | C=CC(=O)Nc1cc(Nc2cc(N3OCC[C@@H]3c3ccc(F)c(Cl)c3)ncn2)c(OC)cc1N1CCC(N2C[C@@H](C)N(C3CC3)C[C@H]2C)CC1 [Example 178, N-(5-((6-((R)-3-(3-chloro-4-fluorophenyl)isoxazolidine-2-yl)pyrimidine-4-yl)amino)-2-(4-((2R,5R)-4-cyclopropyl-2,5-dimethylpiperazine-1-yl)piperidine-1-yl)-4-methoxyphenyl) acrylamide] | A (GI50 < 50 nM)
10 | C=CC(=O)Nc1cc(Nc2cc(N3OCC[C@@H]3c3cccc(Cl)c3Cl)ncn2)c(OC)cc1N1CCOCC1 [compound 517, N-(5-((6-((R)-3-(2,3-dichlorophenyl)isoxazolidine-2-yl)pyrimidine-4-yl)amino)-4-methoxy-2-morpholinophenyl) acrylamide] | A (GI50 < 50 nM)
11 | C=CC(=O)Nc1cc(Nc2cc(N3OCC[C@@H]3Cc3cccc(F)c3)ncn2)c(OC)cc1N1CCC(N2CCN(C3CC3)[C@@H](C)C2)CC1 [compound 993, N-(2-(4-((S)-4-cyclopropyl-3-methylpiperazine-1-yl)piperidine-1-yl)-5-((6-((S)-3-(3-fluorobenzyl)isoxazolidine-2-yl)pyrimidine-4-yl)amino)-4-methoxyphenyl) acrylamide] | A (GI50 < 50 nM)
12 | C=CC(=O)Nc1cc(Nc2cc(N3OCC[C@@H]3c3c(F)ccc(F)c3F)ncn2)c(OC)cc1N1CCC(N2CCN(C3CC3)[C@H](C)C2)CC1 [Example 166, N-(2-(4-((R)-4-cyclopropyl-3-methylpiperazine-1-yl)piperidine-1-yl)-4-methoxy-5-((6-((R)-3-(2,3,6-trifluorophenyl)isoxazolidine-2-yl)pyrimidine-4-yl)amino)phenyl)acrylamide] | A (GI50 < 50 nM)
13 | C=CC(=O)Nc1cc(Nc2cc(N3OCC[C@@H]3c3cccc(Cl)c3Cl)ncn2)c(OC)cc1N1CCN(C(C)C)CC1 [compound 475, N-(5-((6-((R)-3-(2,3-dichlorophenyl)isoxazolidine-2-yl)pyrimidine-4-yl)amino)-2-(4-isopropylpiperazine-1-yl)-4-methoxyphenyl) acrylamide] | A (GI50 < 50 nM)
14 | C=CC(=O)Nc1cc(Nc2cc(N3OCC[C@@H]3c3ccc(Cl)cc3)ncn2)c(OC)cc1N1CCC(N2CCC(N(C)C)CC2)CC1 [compound 808, N-(5-((6-((R)-3-(4-chlorophenyl)isoxazolidine-2-yl)pyrimidine-4-yl)amino)-2-(4-(dimethylamino)-[1,4'-bipiperidine]-1'-yl)-4-methoxyphenyl) acrylamide] | B (50 nM ≤ GI50 < 500 nM)
15 | C=CC(=O)Nc1cc(Nc2cc(N3OCC[C@@H]3c3cccc(F)c3F)ncn2)c(OC)cc1N1CCC(N2CCN(C3CCC3)CC2)CC1 [Example 182, N-(2-(4-(4-cyclobutylpiperazine-1-yl)piperidine-1-yl)-5-((6-((R)-3-(2,3-difluorophenyl)isoxazolidine-2-yl)pyrimidine-4-yl)amino)-4-methoxyphenyl) acrylamide] | A (GI50 < 50 nM)
16 | C=CC(=O)Nc1cc(Nc2cc(N3OCC[C@@H]3c3cc(F)cc(F)c3)ncn2)c(OC)cc1N1CCC(N2CCC(F)(F)CC2)CC1 [compound 718, N-(2-(4,4-difluoro-[1,4'-bipiperidine]-1'-yl)-5-((6-((R)-3-(3,5-difluorophenyl)isoxazolidine-2-yl)pyrimidine-4-yl)amino)-4-methoxyphenyl) acrylamide] | A (GI50 < 50 nM)
